Source: patent US8143307B2, “Benzothiophen-2-carbonylguanidine derivatives, preparation thereof, and pharmaceutical composition containing the same” (Korea Research Institute of Chemical Technology, priority 2004, dated 2012)

What was measured:
Human NHE-1 = target: T1, Human NHE-1 (Homo sapiens, UniProt P19634); experiment: Inhibitory effect on NHE-1 in PS120/NHE-1 cells (recovery from intracellular acidosis, BCECF fluorescence); type: cell-based; settings: human NHE-1 expressed PS120 cells; concentration at which recovery from intracellular acidosis was 50% inhibited
T1 construct: expressed in transfected cells; host or cells: CCL39-derived PS120 cells (PS120/NHE-1)
Description: The benzothiophen-2-carbonylguanidine derivatives of the present invention were examined for NHE-1 inhibitory effect in cells according to the following procedure.
Human NHE-1 was expressed in CCL39-derived PS120 cells. These human NHE-1 expressed cells were cultured in DMEM (Dulbecco's modified Eagle's medium) supplemented with 10% fetal bovine serum, 1% penicillin/streptomycin (100× solution), 1% L-glutamine (200 mM aqueous solution). The PS120/NHE-1 cells grown in 100 mm dishes were treated with trypsin at 80-90% confluency, followed by washing with PBS (phosphate buffer saline) once, and then once with an Na-free buffer (138.2 mM Choline chloride, 4.9 mM KCl, […]. 2H2O, 1.2 mM MgSO4.7H2O, 1.2 mM KH2PO4, 15 mM D-glucose, 20 mM HEPES, at pH 7.4). After centrifugation, the pellet was suspended in an Na-free buffer containing 20 mM NH4Cl and 10 μM BCECF-AM [2′,7′-bis(2-carboxyethyl)-5,6-carboxy-fluorescein acetoxymethyl ester] and incubated at 37° C. for 30 min in a CO2 incubator. After being harvested by centrifugation, the PS120/NHE-1 cells were washed once with an Na-free buffer to remove both NH4Cl and extracellular BCECF-AM, suspended at a density of 2.5×10^4 cells/10 μl and stored at 4° C. in a dark room until reuse. In each well of 96-well microplates, 180 μl of HBS (137 mM NaCl, 4.9 mM KCl, 1.5 mM CaCl2. 2H2O, 1.2 mM MgSO4.7H2O, 1.2 mM KH2PO4, 15 mM D-glucose, 20 mM HEPES, at pH 7.4) and 10 μl of DMSO or 10 μl of a solution of the compound (0.03˜10 μM) of the present invention in DMSO were placed and well mixed, after which 10 μl aliquots of the intracellular acidosis-induced PS120/NHE-1 cells were added thereto. 4 min after the cell addition, fluorescence (excitation: 485/444 nm, emission: 535 nm) was measured in the GEMINI-XS Microplate Spectrofluorometer (Molecular Devices). The fluorescence measured was converted into pH values using a high-K^+/nigericin technique. The cells in which intracellular acidosis was induced with NH4Cl prepulses, were recovered to normal pH values through the operation of NHE-1. The inhibitory effect of the compound against NHE-1 was evaluated as concentrations at which the recovery from the intracellular acidosis to a normal state was 50% inhibited (IC50 values), with cariporide used as a control.

[1] = test system: isolated ischemic rat heart; experiment: Cardioprotective effect in isolated ischemic rat heart model (Langendorff); settings: 10 μM, 30 min global ischemia, 30 min reperfusion
Description: Male rats (300 450 g, the Korea Research Institute of Chemical Technology, Experimental Animal Lab) were anesthetized by intraperitoneal injection with sodium pentobarbital at a dose of 100 mg/kg and were intravenously administered with heparine at a dose of 1000 U/kg, followed by the excision of the heart. In detail, a tracheotomy was performed and a tracheal cannula (PE 240) was inserted into the trachea for subsequent artificial ventilation with room air using a rodent ventilator. […] A catheter tip manometer connected to a latex balloon filled with a mixture of ethanol and distilled water (1:1 v/v) was inserted via an incision in the left atrium into the left ventricle, and the intraventricular pressure thereof transmitted to the latex balloon was measured isovolumetrically with a transducer and recorded on a recording system (Linearcorder mark 8 WR 3500) with the aid of an amplifier (Plugsys bridge amplifier). After stabilizing the heart for 15 min, the balloon volume was adjusted to create a left ventricular end-diastolic pressure (LVEDP) of 5 mmHg during the initial baseline period. The volume of the balloon was maintained until the end of the experiment. Baseline heart contraction function, spontaneous heart rate (HR) and coronary flow (CF) were determined from the left ventricular contraction interval. The left ventricular developed pressure (LVDP), which is regarded as an index of contractile function of the isolated heart, was calculated by subtracting left ventricular end-diastolic pressure (LVEDP) from left ventricular peak systolic pressure (LVSP). In contrast to the heart in the body, the Langendorff heart cannot be measured for cardiac output and thus, RPP (rate-pressure product), which is an important indirect indicator for cardiac performance, was calculated by multiplying heart rate (HR) by LVDP. Throughout the experiment, the temperature of the heart was maintained constant by […] in a 37° C. physiological solution to which 95% O2/5% CO2 was continuously supplied. The heart thus stabilized was perfursed for 10 min with a solution of the compounds of the invention or control drugs in DMSO (dimethylsulfoxide) diluted with HBS (final DMSO conc. 0.04%), or with the solvent only (a negative control; 0.04% DMSO) and then measured again for contractile function, heart rate (HR) and coronary flow (CF). The supply of perfusates was completely stopped for 30 min in order to induce global ischemia in the heart, followed by reperfusion for 30 min. The indices (LVDP, HR, LVEDP, and CF) were measured again. After the reperfusion, the total level of lactate dehydrogenase (LDH) in the reperfusates was measured using a kit and taken as an index of ischemic myocardial injury. A negative control group was treated with the solvent only while cariporide was used as a positive control.

[2] = test system: in vivo ischemic rat heart model; experiment: Cardioprotective effect on in vivo ischemic rat heart model (coronary occlusion/reperfusion, infarct size); settings: 45 min occlusion, 90 min reperfusion
Description: The cardioprotective effect of the benzothiophen-2-carbonylguanidine derivatives according to the present invention in in vivo ischemic hearts was judged with regard to their antischemic effects (myocardiac infarction reduction) on rats as follows.
Each male rat (300˜450 g, the Korea Research Institute of Chemical Technology, Experimental Animal Lab) was anesthetized by intraperitoneal injection with sodium pentobarbital at a dose of 75 mg/kg. Tracheotomy was performed and a tube was inserted into the trachea for subsequent artificial ventilation with a stroke volume of 10 ml/kg and a respiratory rate of 60 breaths/min. The femoral vein and the femoral artery were cannulated for the administration of the compounds and for the measurement of blood pressures, respectively. Meanwhile, the body temperature of the rats, an important factor to influence experimental results in the ischemic myocardiac injury model, was maintained constant at 37° C. using a homeothermic blanket control unit, with a body temperature-monitoring probe inserted into the rectum. Subsequently, rats were continuously measured for mean arterial blood pressure and heart rate HR throughout the experimental time period using a Statham P23XL pressure transducer (Grass Ins., Mass., USA) and an ECG/RATE Coupler (Hugo Sachs Electronic, Germany), respectively, with all continuous changes thereof recorded by Graphtec Linearcorder WR 3310 (Hugo Sachs Electronic).
The left coronary artery was occluded according to Selye H.'s method. In detail, after the chest of each rat was partially opened by left thoracotomy, the middle finger of the left hand was pressed against the right side of the chest of the rat to thrust out the heart which was then slightly fixed with the forefinger and the thumb of the same hand. Then, immediately after the left anterior descending coronary artery (LAD) was sutured with a 5-0 silk ligature, the heart was repositioned back in the thoracic cavity with both ends of the suture positioned outside. The ends of the suture were threaded through a PE tube (PE100, 2.5 cm) and allowed to stand for 20 min for stabilization. Through the cannula inserted into the femoral vein, a vehicle or the compounds of the invention were administered and 30 min was needed for sufficient effects of the administered compounds. Cariporide was used as a control. The ends of the suture threaded through the PE tube were pulled taut with hemostatic forceps to vertically press the PE tube against the coronary artery. After occlusion for 45 min, the hemostatic forceps were removed and reperfusion was conducted for 90 min.
The coronary artery was reoccluded in the same manner as described above, followed by the intravenous injection of 2 ml of 1% Evans blue. The intravenous injection of an excess of pentobarbital killed the rats, from which the hearts were then excised. The left ventricle was removed alone from the isolated heart and transected from the cardiac apex into 5 or 6 slices. Each slice was weighed. The image of each of the heart slices was captured using a Hi-scope, a compact vision system, and analyzed for blue-stained normal areas and non-stained areas with an image analyzing program (Image Pro Plus). In each slice, the area at risk (AAR) was calculated by multiplying the ratio of the non-stained area to the total area of the slice with the weight of the slice. Sum of the individual area at risk (AAR) for each slice was divided by the total weight of the left ventricle to obtain AAR (%) according to the following mathmatical formula 1.
Separately, the heat slices were incubated in 1%. 2,3,5-triphenyltetrazolium chloride (TTC) phosphate buffer (pH 7.4), 37° C., for 15 min and fixed in 10% formalin for 20˜24 hours. In the normal area of the tissue, 2,3,5-triphenyltetrazolium chloride was reduced by the myocardial dehydrogenase in the presence of the cofactor NADH to form formazan dye, which appeared as a brick-red color. […]

T1 sequence (P19634 whole entry): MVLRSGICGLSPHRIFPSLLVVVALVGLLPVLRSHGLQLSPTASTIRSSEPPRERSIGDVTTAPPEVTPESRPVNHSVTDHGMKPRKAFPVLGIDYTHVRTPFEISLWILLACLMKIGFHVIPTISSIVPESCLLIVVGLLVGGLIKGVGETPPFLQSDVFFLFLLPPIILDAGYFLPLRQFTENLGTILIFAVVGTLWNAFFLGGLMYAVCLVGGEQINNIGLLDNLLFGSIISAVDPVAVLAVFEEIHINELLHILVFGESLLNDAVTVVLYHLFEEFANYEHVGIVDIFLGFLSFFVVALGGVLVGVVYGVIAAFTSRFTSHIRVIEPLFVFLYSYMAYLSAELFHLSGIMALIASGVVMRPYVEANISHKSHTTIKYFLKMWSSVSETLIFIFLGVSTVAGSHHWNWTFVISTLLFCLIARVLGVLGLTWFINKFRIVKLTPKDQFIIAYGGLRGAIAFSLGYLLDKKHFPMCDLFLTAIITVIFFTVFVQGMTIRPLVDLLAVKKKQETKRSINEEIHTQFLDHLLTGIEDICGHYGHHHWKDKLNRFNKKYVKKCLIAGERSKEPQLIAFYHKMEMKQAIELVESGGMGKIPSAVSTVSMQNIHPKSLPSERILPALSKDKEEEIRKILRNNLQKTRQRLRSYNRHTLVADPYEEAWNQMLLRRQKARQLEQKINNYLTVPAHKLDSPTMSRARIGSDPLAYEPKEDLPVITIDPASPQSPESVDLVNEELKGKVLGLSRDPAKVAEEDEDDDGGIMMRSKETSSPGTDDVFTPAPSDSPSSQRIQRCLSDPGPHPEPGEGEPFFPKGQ

Row | SMILES | IC50 (Human NHE-1) [nM] | LDH (free LDH level upon reperfusion) [1] [u/g] | LVEDP (left ventricular end-diastolic pressure) [1] [mmHg] | RPP (rate-pressure product (LVDP × HR) % relative to the value before ischemia induction) [1] [%] | Myocardiac infarction rate (IS/AAR, %) ([2]; 0.1 mg/kg intravenous) [%] | Myocardiac infarction rate (IS/AAR, %) ([2]; 0.3 mg/kg intravenous) [%]
1 | CC(C)c1ccc(C(=O)NC(=N)N)cc1S(C)(=O)=O [Cariporide, cariporide, reference compound] | 680 | 19.3 | 22.4 | 69.8 | 40.5 | 37.9
2 | CS(=O)(=O)O.NC(N)=NC(=O)c1cc2c(Br)cccc2s1 [Example 1, (4-Bromobenzothiophene-2-Carbonyl)Guanidine Methanesulfonate] | 200 | – | 34.0 | 54.7 | – | –
3 | CS(=O)(=O)O.NC(N)=NC(=O)c1cc2c(-c3cc(Cl)cc(Cl)c3)cccc2s1 [Example 19, [4-(3,5-Dichlorophenyl)Benzothiophene-2-Carbonyl]Guanidine Methanesulfonate] | 680 | – | 64.4 | 19.1 | – | –
4 | CS(=O)(=O)O.NC(N)=NC(=O)c1cc2c(-c3ccc(F)c(Cl)c3)cccc2s1 [Example 23, [4-(3-Chloro-4-Fluorophenyl)Benzothiophene-2-Carbonyl]Guanidine Methanesulfonate] | 2480 | 8.8 | 68.0 | 5.9 | – | –
5 | CS(=O)(=O)O.NC(N)=NC(=O)c1cc2c(Cl)cccc2s1 [Example 32, (4-Chlorobenzothiophene-2-Carbonyl)Guanidine Methanesulfonate] | 200 | 8.8 | 25.3 | 60.8 | – | –
6 | CS(=O)(=O)O.NC(N)=NC(=O)c1cc2c(F)cccc2s1 [Example 33, (4-Fluorobenzothiophene-2-Carbonyl)Guanidine Methanesulfonate] | 1730 | 7.0 | 37.7 | 46.6 | – | –
7 | N=C(N)NC(=O)c1cc2c(I)cccc2s1 [Example 34, (4-Iodobenzothiophene-2-Carbonyl)Guanidine Methanesulfonate] | < 500 | 7.1 | 19.0 | 65.8 | – | –
8 | CS(=O)(=O)O.Cc1cccc2sc(C(=O)N=C(N)N)cc12 [Example 35, (4-Methylbenzothiophene-2-Carbonyl)Guanidine Methanesulfonate] | 480 | – | 38.0 | 40.4 | – | –
9 | C=Cc1cccc2sc(C(=O)N=C(N)N)cc12.CS(=O)(=O)O [Example 36, (4-Vinylbenzothiophene-2-Carbonyl)Guanidine Methanesulfonate] | 310 | 13.1 | 42.0 | 51.0 | – | –
10 | CS(=O)(=O)O.NC(N)=NC(=O)c1cc2c([N+](=O)[O-])cccc2s1 [Example 39, (4-Nitrobenzothiophene-2-Carbonyl)Guanidine Methanesulfonate] | 2340 | 10.8 | 11.3 | 73.3 | – | –
11 | CS(=O)(=O)O.Cc1ccc2sc(C(=O)N=C(N)N)cc2c1Br [Example 45, (4-Bromo-5-Methylbenzothiophene-2-Carbonyl)Guanidine Methanesulfonate] | 290 | 22.5 | 41.8 | 50.4 | – | –
12 | CS(=O)(=O)O.Cc1ccc2sc(C(=O)N=C(N)N)cc2c1C [Example 47, (4,5-Dimethylbenzothiophene-2-Carbonyl)Guanidine Methanesulfonate] | 750 | 21.2 | 25.0 | 59.3 | – | –
